Twelve compounds from patent US20130131321A1, “LIGANDS FOR ANTIBODY AND Fc-FUSION PROTEIN PURIFICATION BY AFFINITY CHROMATOGRAPHY” (GRAFFINITY PHARMACEUTICALS GMBH, priority 2010, published 2013) can be followed below.

The subject of experiment [1] is human poly-IgG (h-poly-IgG). Nature of the experiment: Microtiter plate chromatography of resins, human poly-IgG (bound, yield). It is filed as binding.
Experiment [2] concerns Tocilizumab. Kind of experiment: Microtiter plate chromatography of resins, Tocilizumab (bound, yield). It counts as binding, humanized.
In experiment [3] the target is T1, Bevacizumab (Homo sapiens, UniProt P01857).
T1 construct: fused on or other part: humanised anti-VEGF-A VH domain N-terminal of the gamma-1 constant region (engineered, no UniProt entry)
Kind of experiment: Microtiter plate chromatography of resins, Bevacizumab whole IgG (bound, yield, selectivity). It counts as binding, humanized.

For experiment [4], the system named is Bevacizumab. Described as above. It is filed as binding, humanized.
Experiment [5] concerns host cell proteins (HCP). Kind of experiment: Microtiter plate chromatography of resins, host cell proteins (bound). It is filed as binding, CHO.
For experiment [6], the system named is Palivizumab. Kind of experiment: Microtiter plate chromatography of resins, Palivizumab (bound, yield). It counts as binding, humanized.
The mark [7] stands for this setting: fraction of whole IgG Bevacizumab bound to resin.
The mark [8] stands for this setting: mass of whole IgG Bevacizumab eluted / mass injected.
The mark [9] stands for this setting: fraction of bound Bevacizumab whole IgG / fraction of bound HCP, truncated beyond values of 10.
Setting [10] is: fraction of injected protein bound to resin.
Where [11] appears, read: fraction of injected whole IgG bound to resin.
The mark [12] stands for this setting: mass eluted / mass injected, whole IgG.
[13] abbreviates: fraction of injected host cell proteins bound to resin.

Structures are written as SMILES. Like-named read-outs stand apart in the source and are kept apart here.

Consider `COc1ccc(NC(=O)c2cc(-c3ccco3)ccn2)cc1C(=O)NCCCN` [Ligand L52, 5-[4-(2-Furyl)pyridin-2-ylcarboxamido]-2-methoxybenzoic acid (3-amino-1-propyl)amide], for which, in experiment [1], the “h-poly-IgG Bound (%)” value is 100% and the “h-poly-IgG Yield (%)” value worked out at 100%. In experiment [2], the “Tocilizumab Bound (%)” value worked out at 100% and the “Tocilizumab Yield (%)” value was found to be 100%. Besides, the “Bevacizumab IgG Bound (%)” value in experiment [3] (setting [7]) worked out at 100%. The “Bevacizumab IgG Yield (%)” value in experiment [3] (setting [8]) was 99%. The compound further registered a Selectivity in experiment [4] of 2.4. In addition, the “HCP Bound (%)” value in experiment [5] (host cell proteins) is given as 41%. Moreover, in experiment [6], the “Palivizumab Bound (%)” value is listed as 100% and the “Palivizumab Yield (%)” value is 83%.
In the case of `COc1ccc(-c2noc(C(=O)Nc3ccc(OC)c(C(=O)NCCCN)c3)n2)cc1` [Ligand L54, 2-Methoxy-5-[3-(4-methoxyphenyl)-1,2,4-oxadiazol-5-ylcarboxamido]benzoic acid (3-amino-1-propyl)amide], in experiment [1], the “h-poly-IgG Bound (%)” value worked out at 100% and the “h-poly-IgG Yield (%)” value worked out at 98%. In addition, in experiment [2], the “Tocilizumab Bound (%)” value is recorded as 100% and the “Tocilizumab Yield (%)” value was 100%. For the same compound, the “Bevacizumab IgG Bound (%)” value in experiment [3] (setting [7]) worked out at 100%. Further, the “Bevacizumab IgG Yield (%)” value in experiment [3] (setting [8]) was 100%. In experiment [4], the Selectivity is 2.8. Moreover, in experiment [5] (host cell proteins), the “HCP Bound (%)” value is recorded as 36%. Moreover, in experiment [6], the “Palivizumab Bound (%)” value is listed as 100% and the “Palivizumab Yield (%)” value came out at 84%.
For `COc1ccc(NC(=O)c2nc(-c3ccco3)no2)cc1C(=O)NCCCN` [Ligand L55, 5-[3-(2-Furyl)-1,2,4-oxadiazol-5-ylcarboxamido]-2-methoxybenzoic acid (3-amino-1-propyl)amide], in experiment [1], the “h-poly-IgG Bound (%)” value is given as 100% and the “h-poly-IgG Yield (%)” value was 93%. In experiment [2], the “Tocilizumab Bound (%)” value is reported as 100% and the “Tocilizumab Yield (%)” value is reported as 100%. In addition, the “Bevacizumab IgG Bound (%)” value in experiment [3] (setting [7]) stood at 100%. Moreover, the “Bevacizumab IgG Yield (%)” value in experiment [3] (setting [8]) is 95%. Further, in experiment [4], the Selectivity amounted to 3.3. The “HCP Bound (%)” value in experiment [5] (host cell proteins) came out at 31%. Also, in experiment [6], the “Palivizumab Bound (%)” value was 100% and the “Palivizumab Yield (%)” value was found to be 99%.
As to `COc1ccc(NC(=O)c2cc3ncccn3n2)cc1C(=O)NCCCN` [Ligand L56, 2-Methoxy-5-(pyrazolo[1,5-a]pyrimidin-2-ylcarboxamido)benzoic acid (3-amino-1-propyl)amide], in experiment [1], the “h-poly-IgG Bound (%)” value was found to be 83% and the “h-poly-IgG Yield (%)” value was determined as 83%. For the same compound, in experiment [2], the “Tocilizumab Bound (%)” value came to 95% and the “Tocilizumab Yield (%)” value is 95%. Moreover, the “Bevacizumab IgG Bound (%)” value in experiment [3] (setting [7]) worked out at 100%. The “Bevacizumab IgG Yield (%)” value in experiment [3] (setting [8]) worked out at 95%. For the same compound, in experiment [4], the Selectivity worked out at 4.9. Moreover, the “HCP Bound (%)” value in experiment [5] (host cell proteins) came to 21%. Besides, in experiment [6], the “Palivizumab Bound (%)” value was found to be 81% and the “Palivizumab Yield (%)” value amounted to 79%.
Turning to `COc1ccc(NC(=O)c2cn3ccccc3n2)cc1C(=O)NCCCN` [Ligand L57, 5-(Imidazo[1,2-a]pyridin-2-ylcarboxamido)-2-methoxybenzoic acid (3-amino-1-propyl)amide], in experiment [1], the “h-poly-IgG Bound (%)” value was found to be 53% and the “h-poly-IgG Yield (%)” value turned out to be 53%. In experiment [2], the “Tocilizumab Bound (%)” value is 78% and the “Tocilizumab Yield (%)” value came to 78%. Besides, in experiment [3] (setting [7]), the “Bevacizumab IgG Bound (%)” value is recorded as 100%. In addition, in experiment [3] (setting [8]), the “Bevacizumab IgG Yield (%)” value is on record as 90%. Besides, the Selectivity in experiment [4] is 6.3. Also, the “HCP Bound (%)” value in experiment [5] (host cell proteins) came to 16%. In experiment [6], the “Palivizumab Bound (%)” value is given as 44% and the “Palivizumab Yield (%)” value worked out at 42%.
On to `COc1ccc(NC(=O)c2nnc(-c3ccco3)o2)cc1C(=O)NCCCN` [Ligand L58, 5-[5-(2-Furyl)-1,3,4-oxadiazol-2-yl]carboxamido-2-methoxybenzoic acid (3-amino-1-propyl)amide], for which, in experiment [1], the “h-poly-IgG Bound (%)” value was found to be 98% and the “h-poly-IgG Yield (%)” value is 93%. For the same compound, in experiment [2], the “Tocilizumab Bound (%)” value worked out at 100% and the “Tocilizumab Yield (%)” value came out at 100%. In addition, in experiment [3] (setting [7]), the “Bevacizumab IgG Bound (%)” value worked out at 100%. The “Bevacizumab IgG Yield (%)” value in experiment [3] (setting [8]) is listed as 90%. The compound also came in with a Selectivity in experiment [4] of 4.3. For the same compound, the “HCP Bound (%)” value in experiment [5] (host cell proteins) is on record as 23%. Further, in experiment [6], the “Palivizumab Bound (%)” value is listed as 97% and the “Palivizumab Yield (%)” value stood at 83%.
Turning to `COc1ccc(NC(=O)c2nn(CCO)c3ccccc23)cc1C(=O)NCCCN` [Ligand L59, 5-[1-(2-Hydroxyethyl)indazol-3-ylcarboxamido]-2-methoxybenzoic acid (3-amino-1-propyl)amide], in experiment [1], the “h-poly-IgG Bound (%)” value came to 71% and the “h-poly-IgG Yield (%)” value turned out to be 71%. For the same compound, in experiment [2], the “Tocilizumab Bound (%)” value is reported as 89% and the “Tocilizumab Yield (%)” value was 89%. The “Bevacizumab IgG Bound (%)” value in experiment [3] (setting [7]) was determined as 100%. Besides, the “Bevacizumab IgG Yield (%)” value in experiment [3] (setting [8]) was determined as 97%. Besides, the Selectivity in experiment [4] stood at 3.1. Moreover, the “HCP Bound (%)” value in experiment [5] (host cell proteins) turned out to be 32%. In experiment [6], the “Palivizumab Bound (%)” value was 64% and the “Palivizumab Yield (%)” value turned out to be 64%.
`COc1ccc(NC(=O)c2nn(C)c3ccccc23)cc1C(=O)NCCOCCOCC(=O)NCCOCCOCC(=O)NCCCN` [Ligand L61, 8-{8-[2-Methoxy-5-(1-methylindazol-3-ylcarboxamido)phenylcarboxamido]-3,6-dioxaoctanoylamido}-3,6-dioxaoctanoic acid (3-amino-1-propyl)amide]: in experiment [1], the “h-poly-IgG Bound (%)” value was 81% and the “h-poly-IgG Yield (%)” value is recorded as 81%. In experiment [2], the “Tocilizumab Bound (%)” value amounted to 84% and the “Tocilizumab Yield (%)” value was 84%. Also, in experiment [3] (setting [7]), the “Bevacizumab IgG Bound (%)” value is reported as 100%. Further, in experiment [3] (setting [8]), the “Bevacizumab IgG Yield (%)” value amounted to 92%. The same compound displayed a Selectivity in experiment [4] of 5.1. Further, the “HCP Bound (%)” value in experiment [5] (host cell proteins) is reported as 20%. In experiment [6], the “Palivizumab Bound (%)” value is listed as 67% and the “Palivizumab Yield (%)” value is given as 66%.
Regarding `COc1ccc(NC(=O)c2cn3ncccc3n2)cc1C(=O)NCCOCCOCC(=O)NCCCC[C@H](NC(=O)COCCOCCNC(=O)c1cc(NC(=O)c2cn3ncccc3n2)ccc1OC)C(=O)NCCCN` [Ligand L62, (S)-2,6-Bis{8-[5-(Imidazo[1,2-b]pyridazin-2-ylcarboxamido)-2-methoxyphenylcarboxamido]-3,6-dioxaoctanoylamido}hexanoic acid (3-amino-1-propyl)amide], in experiment [1], the “h-poly-IgG Bound (%)” value came to 89% and the “h-poly-IgG Yield (%)” value amounted to 89%. In addition, in experiment [2], the “Tocilizumab Bound (%)” value was determined as 95% and the “Tocilizumab Yield (%)” value came to 91%. For the same compound, the “Bevacizumab IgG Bound (%)” value in experiment [3] (setting [7]) is on record as 100%. Further, the “Bevacizumab IgG Yield (%)” value in experiment [3] (setting [8]) came to 100%. The compound further came in with a Selectivity in experiment [4] (setting [9]) of 10.0. Further, the “HCP Bound (%)” value in experiment [5] (host cell proteins) was determined as 3%. In experiment [6], the “Palivizumab Bound (%)” value came to 84% and the “Palivizumab Yield (%)” value stood at 77%.
Turning to `COc1ccc(NC(=O)c2cn3cccnc3n2)cc1C(=O)NCCCN` [Ligand L63, 5-(Imidazo[1,2-a]pyrimidin-2-ylcarboxamido)-2-methoxybenzoic acid (3-amino-1-propyl)amide], in experiment [1], the “h-poly-IgG Bound (%)” value was 11% and the “h-poly-IgG Yield (%)” value was found to be 10%. In experiment [2], the “Tocilizumab Bound (%)” value was 4% and the “Tocilizumab Yield (%)” value is listed as 4%. Besides, in experiment [3] (setting [7]), the “Bevacizumab IgG Bound (%)” value is 100%. The “Bevacizumab IgG Yield (%)” value in experiment [3] (setting [8]) came out at 95%. In experiment [4] (setting [9]), this compound came in with a Selectivity of 10.0. Besides, the “HCP Bound (%)” value in experiment [5] (host cell proteins) was found to be 3%. In addition, in experiment [6], the “Palivizumab Bound (%)” value is 0% and the “Palivizumab Yield (%)” value is given as 0%.
Regarding `COc1ccc(NC(=O)c2cc(-c3ccco3)n(C)n2)cc1C(=O)NCCOCCOCC(=O)NCCOCCOCC(=O)NCCCN` [Ligand L65, 8-{8-{5-[5-(2-Furyl)-1-methylpyrazol-3-ylcarboxamido]-2-methoxyphenylcarboxamido}-3,6-dioxaoctanoylamido}-3,6-dioxaoctanoic acid (3-amino-1-propyl)amide], the “h-poly-IgG Bound (%)” value in experiment [1] (setting [10]) is listed as 67%. Further, the “h-poly-IgG Yield (%)” value in experiment [1] (mass eluted / mass injected) amounted to 67%. Also, in experiment [2] (setting [10]), the “Tocilizumab Bound (%)” value was 74%. Further, in experiment [2] (mass eluted / mass injected), the “Tocilizumab Yield (%)” value turned out to be 71%. The “Bevacizumab IgG Bound (%)” value in experiment [3] (setting [11]) was 100%. Moreover, the “Bevacizumab IgG Yield (%)” value in experiment [3] (setting [12]) is given as 100%. Also, the Selectivity in experiment [4] stood at 9.5. Moreover, in experiment [5] (setting [13]), the “HCP Bound (%)” value is 11%. For the same compound, the “Palivizumab Bound (%)” value in experiment [6] (setting [10]) is reported as 58%. In experiment [6] (mass eluted / mass injected), the “Palivizumab Yield (%)” value turned out to be 58%.
Regarding `COc1ccc(NC(=O)c2cn3ccsc3n2)cc1C(=O)NCCOCCOCC(=O)NCCOCCOCC(=O)NCCCN` [Ligand L66, 8-{8-[5-(Imidazo[2,1-b]thiazol-6-ylcarboxamido)-2-methoxyphenylcarboxamido]-3,6-dioxaoctanoylamido}-3,6-dioxaoctanoic acid (3-amino-1-propyl)amide], in experiment [1] (setting [10]), the “h-poly-IgG Bound (%)” value came to 46%. In experiment [1] (mass eluted / mass injected), the “h-poly-IgG Yield (%)” value is 46%. The “Tocilizumab Bound (%)” value in experiment [2] (setting [10]) was 54%. Besides, the “Tocilizumab Yield (%)” value in experiment [2] (mass eluted / mass injected) is 53%. Besides, the “Bevacizumab IgG Bound (%)” value in experiment [3] (setting [11]) is 100%. The “Bevacizumab IgG Yield (%)” value in experiment [3] (setting [12]) was determined as 100%. In addition, the Selectivity in experiment [4] (bound Bevacizumab whole IgG / bound HCP, truncated beyond values of 10) worked out at 10.0. For the same compound, the “HCP Bound (%)” value in experiment [5] (setting [13]) is reported as 0%. Further, in experiment [6] (setting [10]), the “Palivizumab Bound (%)” value came to 41%. The “Palivizumab Yield (%)” value in experiment [6] (mass eluted / mass injected) was determined as 27%.
